# Reference: publication PMC3923730 (Journal of Translational Medicine, 2014)
# “And” between values parts separate entries of the source, which are not always exact repeats. Equal entries are not always repeated.
# Key:
# [1] = test system: myocardial infarction model in rats; test: Myocardial infarction model in rats (35 min CAO, reperfusion, infarct size by TTC); format: in vivo; details: rat; for IS (% AAR) / IS (% LV) / IS (% Vehicle IS): 24 h reperfusion, mean ± S.E.M.; for reduction of infarct size compared to control: p < 0.001
# Method: In all groups of rats, the left anterior descending coronary artery was occluded during 35 min and released for reperfusion as previously described. For the dose range testing, the vehicle (IL30) or TRO40303 solution in IL30 (stock solution diluted in IL30 to administer ~1.5 mL/kg in each group) at increasing doses (0.3, 1, 3 and 10 mg/kg) were administered as a 5 min infusion through the jugular vein starting 10 min before coronary artery reperfusion (CAR). To evaluate the therapeutic window, the vehicle or TRO40303 at 1 mg/kg were also administered either 10 min before coronary artery occlusion (CAO) or 10 min after CAR. Infarct size was determined by triphenyltetrazolium chloride (TTC) staining and was calculated as a percentage of the area at risk (AAR), 24 h after reperfusion. For the dose range experiment, infarct size was expressed for all doses as a percent of the vehicle group infarct size.
# isolated rat heart = test: Langendorff isolated rat heart ischemia-reperfusion, hemodynamic measurements; details: 1 μM, vs 0.03% HPBCD
# Method: Ischemic reperfusion of Langendorff isolated rat heart was performed as previously described. Rat hearts were perfused either with TRO40303 1 μM (0.5 mg/mL stock in 30% HPBCD diluted 1000X in Krebs-Henseleit (KH) buffer (n = 29)) or vehicle (30% HPBCD diluted 1000X in KH buffer (n = 24)) during 30 min equilibration, 10 min low flow ischemia, and 60 min reperfusion following 30 min of total ischemia. During the reperfusion period, the following parameters were monitored via a water-filled latex balloon inserted into the left ventricle: left ventricular end diastolic pressure (LVEDP); left ventricular developed pressure (Pdev); its first derivative (dP/dt) and heart rate. Coronary flow was measured by collecting the coronary perfusate over 1 min. The rate-pressure product (RPP) was calculated as the product of Pdev and heart rate. Some of the hearts from this main experiment were used to assess ascorbate, reactive oxygen species (ROS) and lipid peroxidation as described below.
# Domestic Yorkshire pigs = test: Porcine liposome-induced cardio-pulmonary distress model; format: in vivo; details: pig, 10 mg/kg i.v. liposomal formulation
# Method: Domestic Yorkshire pigs (12-14 weeks, ~25 kg) received multiple i.v. injections of the test material via the external jugular vein at 10 mL/min as follows: saline as a negative control, the liposomal formulation of TRO40303 at 10 mg/kg and a bolus of Doxil® at 0.01 mg/kg as a positive control. Doxil® is a marketed liposomal formulation of doxorubicin administered intravenously that can provoke acute infusion-related reactions.
# Hemodynamic changes were monitored continuously for at least 30 min after the end of each test material infusion. Systemic arterial blood pressure (SAP) and pulmonary arterial blood pressure (PAP) changes were evaluated.
# [2] = test system: healthy male and post-menopausal female subjects; test: Phase I trial safety and tolerability; format: in vivo; details: human
# Method: A randomized, double-blind, placebo controlled study was performed to investigate the safety, tolerability and pharmacokinetics of single i.v. ascending doses of TRO40303 in healthy male and post-menopausal female subjects. The choice of the dose and flow rate escalation process is explained in the Result section. Seventy-two healthy volunteers were randomized, with 18 receiving a placebo and 54 an active liposomal formulation containing 20 mg/mL TRO40303 at final doses ranging from 0.5, 1, 2, 3.5, 6, 10 to 13 mg/kg with escalating flow rates from 0.04 mL/min to 35 mL/min. Within each group, 3 or 6 subjects received TRO40303 and 1 or 2 subjects received the same volume of placebo. The sample size was based on the number of doses and flow rates to be investigated. The 6 verum/2 placebo ratio per group is widely used in single ascending dose studies and provides adequate safety and pharmacokinetic information. The 3 verum/1 placebo ratio used in the last groups was chosen only to explore additional flow rates at previously studied doses.
# Continuous recording of adverse events, continuous blood pressure monitoring for 2 hours after dosing and 12-lead electrocardiogram (ECG) at pre-dose, 15 min, 1 h, 4 h, 8 h, 24 h, 72 h and 96 h after end of infusion were performed. Vital signs, physical examination, haematology, blood biochemistry, urinalysis and haemostasis were performed before the study, at specific times after dosing and at the “end of study visit”, 7 days after administration. Blood biochemistry analysis included ASAT, ALAT, alkaline phosphatase, triglycerides, total cholesterol, HDL-cholesterol and LDL-cholesterol.
# [3] = test system: myocardial infarction model in rats; set-up: method as in PMID 20215409; details: rat myocardial infarction model, 2.5 mg/kg formulated in HPBCD; cited from earlier work
# [4] = 0.3 mg/kg in IL30 i.v. 10 min before CAR
# [5] = 1 mg/kg in IL30 i.v. 10 min before CAR
# [6] = 3 mg/kg in IL30 i.v. 10 min before CAR
# [7] = 10 mg/kg in IL30 i.v. 10 min before CAR
# [8] = 0.5 mg/kg, 0.08 mL/min, back pain
# [9] = 2 mg/kg, 0.64 mL/min, injection site haematoma
# [10] = 3.5 mg/kg, 5 mL/min, presyncope
# [11] = 6 mg/kg, 7.5 mL/min, infusion site inflammation
# [12] = 6 mg/kg, 23 mL/min, vision blurred
# [13] = single i.v. 0.5-13 mg/kg, flow rates 0.04-35 mL/min
smiles,measurement,setting,value
"CC(C)CCC[C@@H](C)[C@H]1CC[C@H]2[C@@H]3CC/C(=N\O)[C@](C)(CCCO)[C@H]3CC[C@]12C [TRO40303, 3,5-seco-4-nor-cholestan-5-one oxime-3-ol]",IS (% AAR),[1]; [4],26 ± 4 % AAR
same,IS (% LV),[1]; [4],11 ± 2 % LV
same,IS (% Vehicle IS),[1]; [4],77 ± 15 % Vehicle IS
same,infarct size compared to vehicle,"[1]; 0.3 mg/kg in IL30 i.v. bolus 10 min before reperfusion, 24 h after reperfusion",smaller but not significantly different
same,infarct size compared to vehicle,[1]; 1 mg/kg in IL30 10 min after the onset of CAR,unchanged
same,reduction of infarct size compared to vehicle,[1]; 1 mg/kg in IL30 10 min before 35 min CAO,55%
same,IS (% AAR),[1]; [5],19 ± 2 % AAR
same,IS (% LV),[1]; [5],7 ± 1 % LV
same,IS (% Vehicle IS),[1]; [5],56 ± 6 % Vehicle IS
same,reduction of infarct size compared to vehicle,"[1]; 1 mg/kg in IL30 i.v. bolus 10 min before reperfusion, p < 0.01",40%
same,IS (% AAR),[1]; [6],15 ± 2 % AAR
same,IS (% LV),[1]; [6],6 ± 1 % LV
same,IS (% Vehicle IS),[1]; [6],44 ± 7 % Vehicle IS
same,reduction of infarct size compared to control,"[1]; 3 mg/kg in IL30 i.v. bolus 10 min before reperfusion, 3 mg/kg",50% and ~ 50%
same,IS (% AAR),[1]; [7],25 ± 6 % AAR
same,IS (% LV),[1]; [7],7 ± 2 % LV
same,IS (% Vehicle IS),[1]; [7],45 ± 10 % Vehicle IS
same,reduction of infarct size compared to control,"[1]; 10 mg/kg in IL30 i.v. bolus 10 min before reperfusion, 10 mg/kg",50% and ~ 50%
same,recovery of LVEDP at reperfusion,isolated rat heart; 60 min reperfusion after 30 min total ischemia,greatly and significantly improved
same,contractility (dP/dt),isolated rat heart; reperfusion,improved
same,developed pressure (Pdev),isolated rat heart; reperfusion,improved
same,rate-pressure product (RPP),isolated rat heart; reperfusion,significantly higher
same,recovery of coronary flow,isolated rat heart; reperfusion,better recovery
same,change in systemic arterial blood pressure (SAP),Domestic Yorkshire pigs,not changed
same,Emergent AEs: Description,"[2]; 0.5 mg/kg, 0.08 mL/min",2 episodes of back pain
same,Emergent AEs: Intensity,[2]; [8],1 Moderate and 1 Mild
same,Emergent AEs: Relationship,[2]; [8],Excluded
same,Emergent AEs: Description,"[2]; 2 mg/kg, 0.64 mL/min",1 episode of injection site haematoma
same,Emergent AEs: Intensity,[2]; [9],Moderate
same,Emergent AEs: Relationship,[2]; [9],Excluded
same,Emergent AEs: Description,"[2]; 3.5 mg/kg, 5 mL/min",1 episode of presyncope
same,Emergent AEs: Intensity,[2]; [10],Moderate
same,Emergent AEs: Relationship,[2]; [10],Unlikely
same,Emergent AEs: Description,"[2]; 6 mg/kg, 7.5 mL/min",1 episode of infusion site inflammation
same,Emergent AEs: Intensity,[2]; [11],Moderate
same,Emergent AEs: Relationship,[2]; [11],Probable
same,Emergent AEs: Description,"[2]; 6 mg/kg, 23 mL/min",1 episode of vision blurred
same,Emergent AEs: Intensity,[2]; [12],Moderate
same,Emergent AEs: Relationship,[2]; [12],Possible
same,"changes in vital signs, ECG parameters, laboratory tests or physical examinations","[2]; any time, any dose group",No relevant changes
same,clinical tolerability,[2]; [13],well tolerated clinically
same,serious adverse events,[2]; [13],no serious adverse events
same,reduction of infarct size,[3],38%
